# Assay results from US7396836B2, “Pyrimidine compound and medicinal composition thereof” (Eisai R&D Management Co., Ltd., priority 2001, dated 2008).
# Assays:
# [1] = molecular target: T1, adenosine A2A receptor (Homo sapiens, UniProt P29274); test: Binding ability to adenosine A2A receptor (3H-CGS21680 displacement); conditions: A2A receptor membrane sample, Cheng-Prusoff
# T1 construct: purchased Receptor Biology Inc
# Description: Measurement of the Binding Ability to Adenosine A2A Receptor
# An experiment of inhibition of binding to adenosine A2A receptor was conducted using a membrane sample (Receptor Biology Inc.) where an adenosine A2A receptor cDNA was expressed in excess. This membrane sample was suspended at a protein concentration of 22.2 μg/ml in 20 mM HEPES buffer, pH 7.4 (10 mM MgCl2 and 100 mM NaCl). To 0.45 ml of this membrane sample suspension were added 0.025 ml of 500 nM tritium-labeled 2-p-[2-carboxyethyl]phenetylamino-5′-N-ethylarboxyamide adenosine (^3H-CGS21680, from NEN) and 0.025 ml of test compound. This mixture was left at 25° C. for 90 minutes, filtered rapidly under suction through a glass fiber filter (GF/B, from Whatman), and immediately washed twice with 5 ml of 50 mM ice-cooled Tris-HCl buffer. Thereafter, the glass fiber filter was transferred to a vial, scintillator was added thereto, and the radioactivity on the filter was measured by a liquid scintillation counter. The inhibition of binding of ^3H-CGS21680 to A2A receptor by the test compound was determined using the following formula, and from this inhibition, 50% inhibition concentration (IC50) was calculated. Inhibition (%)=[1−{[(binding in the presence of the test compound)−(nonspecific binding)]/[(total binding)−(nonspecific binding)]}]×100
# (§1) Here, the total binding means ^3H-CGS21680-bound radioactivity in the absence of the test compound; the nonspecific binding means ^3H-CGS21680-bound radioactivity in the presence of 100 μM RPIA; and the binding in the presence of the test compound means ^3H-CGS21680-bound radioactivity in the presence of the test compound at predetermined concentrations. The inhibition constant (Ki value) in the table was determined from the formula of Cheng-Prusoff.
# [2] = molecular target: T2, human adenosine A2B receptor (Homo sapiens, UniProt P29275); test: Inhibition of NECA-stimulated production of cAMP in adenosine A2B receptor-expressing CHOK1 cells; assay type: cell-based; conditions: cAMP stimulated by 30 nM NECA
# T2 construct: expressed in transfected cells; host or cells: CHOK1 cells
# T2 sequence (P29275 1-332): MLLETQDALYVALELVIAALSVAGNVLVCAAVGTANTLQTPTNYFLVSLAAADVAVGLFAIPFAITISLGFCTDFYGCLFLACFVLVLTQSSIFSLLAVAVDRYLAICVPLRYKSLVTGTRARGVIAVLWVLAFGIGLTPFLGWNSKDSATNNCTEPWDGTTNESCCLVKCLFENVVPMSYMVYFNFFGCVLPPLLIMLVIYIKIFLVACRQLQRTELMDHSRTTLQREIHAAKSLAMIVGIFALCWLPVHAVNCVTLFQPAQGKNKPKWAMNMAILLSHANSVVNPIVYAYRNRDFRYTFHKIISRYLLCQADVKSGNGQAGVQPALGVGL
# Description: Experiment of Inhibition of NECA-stimulated Production of cAMP in Adenosine A2B Receptor-expressing Cells
# CHOK1 cells where human adenosine A2B receptor had been expressed in excess were plated onto a 24-well plate at a density of 1.5×10^5 cells/well, cultured overnight, and used in the experiment. The degree of inhibitory effect of the test compound on the amount of cAMP produced by stimulation with 30 nM 5′-N-ethylcarboxyamide adenosine (NECA from Sigma) was evaluated in terms of affinity for A2B receptor. That is, the adhering cells were washed twice with 2 ml/well Krebs-Ringer buffer solution (containing 0.1% BSA; pH 7.4) and pre-incubated for 30 minutes in a volume of 0.5 ml/well. Then, a mixed solution containing NECA and the test compound was added in a volume of 0.1 ml/well in the presence of a phosphodiesterase inhibitor Ro-20-1724 (a product of RBI). After pre-incubation for 15 minutes, the reaction was terminated with 0.1 N HCl in a volume of 300 μl/well. Measurement of intracellular cAMP was carried out using a cAMP enzyme immunoassay kit produced by Amersham. The inhibition of NECA-stimulated production of cAMP by the test compound was determined using the following equation: Inhibition (%)=[1−{(amount of cAMP in the coexistence of NECA and the test compound-amount of cAMP in only the Krebs-Ringer buffer solution)/(amount of cAMP upon stimulation with NECA only-amount of cAMP in only the Krebs-Ringer buffer solution)}]×100
# [3] = molecular target: T3, human adenosine A1 receptor (Homo sapiens, UniProt P30542); test: Binding affinity to adenosine A1 receptor (3H-CCPA displacement); conditions: membranes of CHOK1 cells expressing human A1 receptor, Cheng-Prusoff
# T3 construct: expressed in transfected cells; host or cells: CHOK1 cells (membrane sample)
# T3 sequence (P30542 1-326): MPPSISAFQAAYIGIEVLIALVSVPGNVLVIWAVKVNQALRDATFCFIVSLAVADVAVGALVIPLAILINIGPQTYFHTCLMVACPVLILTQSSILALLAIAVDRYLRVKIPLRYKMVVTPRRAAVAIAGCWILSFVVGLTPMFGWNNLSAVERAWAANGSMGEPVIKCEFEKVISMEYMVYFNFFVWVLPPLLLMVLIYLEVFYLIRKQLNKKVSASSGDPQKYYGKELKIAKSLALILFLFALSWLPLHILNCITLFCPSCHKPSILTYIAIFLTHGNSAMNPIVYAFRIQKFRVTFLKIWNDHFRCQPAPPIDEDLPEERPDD
# Description: Measurement of the binding affinity to adenosine A1 receptor
# A human adenosine A1 receptor cDNA was expressed in excess in CHOK1 cells, and this membrane sample was suspended at a protein concentration of 66.7 μg/ml in 20 mM HEPES buffer, pH 7.4 (10 mM MgCl2, 100 mM NaCl). To 0.45 ml of this membrane sample suspension were added 0.025 ml of 60 nM tritium-labeled chlorocyclopentyl adenosine (^3H-CCPA, from NEN Ltd.) and 0.025 ml of test compound. This mixture was left at 30° C. for 120 minutes, filtered rapidly under suction through a glass fiber filter (GF/B, from Whatman), and immediately washed twice with 5 ml of 50 mM water-cooled Tris-HCl buffer. Thereafter, the glass fiber filter was transferred to a vial, scintillator was added thereto, and the radioactivity on the filter was measured by a liquid scintillation counter. The inhibition of binding of ^3H-CCPA to A1 receptor by the test compound was determined using the following formula, and from this value, 50% inhibition concentration (IC50) was calculated. Inhibition (%)=[1-{(binding in the presence of the test compound-nonspecific binding)/(total binding-nonspecific binding)}]×100
# as §1, with “In the above formula,” for “Here,”, “^3H-CCPA-bound” for “^3H-CGS21680-bound”, “CPA ([…]);” for “RPIA;”
# [4] = system: SD IGS rats; test: Evaluation of defecation-promoting action; assay type: in vivo, rat; conditions: 3 mg/kg oral, 90 minutes after administration, per cage (3 animals/cage)
# Text: Evaluation of Defecation-Promoting Action
# The defecation-promoting action of the adenosine A2B receptor-inhibiting compound which was identified by measuring the binding affinity or antagonistic activity thereof to the adenosine receptor in Test Examples 1 to 3, a salt thereof, a solvate of them, or a pharmaceutical composition containing it can be evaluated on the basis of the following method. That is, SD IGS rats (6 weeks-old, from Charles River) were placed in cages (3 animals/cage) and preliminarily allowed food and water ad libitum and raised for 1 week. Then, a tared water-absorbing sheet was placed below each cage, and the animals were fasted but allowed water ad libitum throughout the experiment. After 1.5 hours, the fecal pellets were collected from each cage and observed for abnormality before the experiment. The compound suspended or dissolved in 0.5% (w/v) methyl cellulose (MC) was orally administered in a volume of 5 ml/kg. On one hand, 0.5% (w/v) MC only was orally given to the control group. After administration of the compound, the rats were returned to the cage provided with a new water-absorbing sheet, and 90 minutes after the administration, the fecal pellets on the water-absorbing sheet were collected from each cage, and the external appearance was observed, and then counted and weighed. The number of fecal pellets is expressed per each cage.
# [5] = system: haloperidol-induced catalepsy; test: Evaluation of effects on haloperidol-induced catalepsy; assay type: in vivo, mouse; conditions: ICR mice, haloperidol 1 mg/kg i.p., 1 hour after administration, score 0-5
# Text: Evaluation of Effects on Haloperidol-induced Catalepsy Parkinson's disease is a disease caused by the degeneration or cell death of nigrostriatal dopaminergic neurons. The administration of haloperidol (dopamine D1/D2 receptor antagonist) blocks postsynaptic D2 receptors to induce catalepsy. The haloperidol-induced catalepsy has been known as a classic model that mimics Parkinson's disease by drug administration (Eur. J. Pharmacol., 182, 327-334(1990)). The adenosine A2A receptor antagonist compounds identified by measuring on their binding abilities to the receptors in Test Examples 1 to 3, the salts thereof, solvates of them, or pharmaceutical compositions containing those were evaluated for effect on haloperidol-induced catalepsy by the method described below. That is, the experiment was conducted by eight 5-week-old male ICR mice (available from Charles River) per group. Haloperidol (manufactured by Sigma Co., Ltd.) was dissolved in a 6.1% tartaric acid solution and the resulting solution in a dose of 1 mg/kg was then intraperitoneally administered to the mice. The test compound was used as a 0.5% MC suspension. 1.5 hours after the intraperitoneal administration of haloperidol, each of the suspension with the test compound and the suspension without the test compound (control) was orally administered to the mice (0.1 ml per 10 g of mouse body weight). 1 hour after the administration of the test compound, the degree of catalepsy was measured with respect to each of the mice such that a pair of only forelimbs and a pair of only hindlimbs of each mouse were placed by turns on a stand 4.5 cm in height and 10 cm in width. […] Catalepsy scores and criterions are as follows. […] The effects of the compound were determined by making a comparison between the score of the control group and the score of the test group in which the test compound was administered. A significant difference was analyzed by Dunnett's-test.
# T1 sequence (P29274 whole entry): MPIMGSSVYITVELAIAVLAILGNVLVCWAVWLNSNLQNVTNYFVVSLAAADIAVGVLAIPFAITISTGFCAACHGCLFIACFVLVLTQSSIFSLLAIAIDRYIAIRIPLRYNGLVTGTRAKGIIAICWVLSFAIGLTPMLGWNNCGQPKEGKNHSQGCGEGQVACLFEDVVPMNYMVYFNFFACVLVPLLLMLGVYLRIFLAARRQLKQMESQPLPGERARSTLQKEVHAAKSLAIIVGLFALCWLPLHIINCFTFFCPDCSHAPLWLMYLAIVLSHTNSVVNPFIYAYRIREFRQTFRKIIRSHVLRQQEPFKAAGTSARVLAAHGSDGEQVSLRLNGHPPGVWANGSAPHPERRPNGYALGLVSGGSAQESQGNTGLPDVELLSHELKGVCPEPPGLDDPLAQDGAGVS
Ki [1] [nM],IC50 [2] [nM],Ki [3] [nM],SMILES,Number of fecal pellets Mean ± S.E. [4],Catalepsy score (Mean ± S.E.) ([5]; test compound 0.1 mg/kg oral),Catalepsy score (Mean ± S.E.) ([5]; test compound 1.0 mg/kg oral)
2,26,114,"C=CCn1cc(-c2cnc(N)nc2-c2ccco2)ccc1=O [Example 18, 1-Allyl-5-[2-amino-4-(2-furyl)-5-pyrimidinyl]-1,2-dihydro-2-pyridinone]",14.50 ± 1.26,–,–
6,29,175,"Cn1cc(-c2cnc(N)nc2-c2ccco2)ccc1=O [Example 16, 5-[2-Amino-4-(2-furyl)-5-pyrimidinyl]-1-methyl-1,2-dihydro-2-pyridinone]",12.50 ± 0.96,4.63 ± 0.38,0.88 ± 0.64
3,25,289,"CCn1cc(-c2cnc(N)nc2-c2ccco2)ccc1=O [Example 17, 5-[2-Amino-4-(2-furyl)-5-pyrimidinyl]-1-ethyl-1,2-dihydro-2-pyridinone]",15.50 ± 3.18,3.38 ± 0.53,1.13 ± 0.67
